Assay results: patent publication US10239933B2, “Compositions and methods for modulating thrombin generation” (The Children's Hospital of Philadelphia, priority 2011, dated 2019)
Entries after “also recorded” stand apart in the source; their conditions may differ. Where two headings read alike, the source gives them in different places. Blank lines part the entries; values can stand above or below the molecule they belong to. Ends that are not written are not given here. * marks the point of attachment. X2 = CN(c1ccccc1)c1ccc2c(-c3ccccc3S(=O)(=O)N3CCC(C(=O)NCCCCCN4C(=O)CC(*)C4=O)CC3)c3ccc(=[N+](C)c4ccccc4)cc-3oc2c1; X1 = O=C1OC2(c3cc(F)c(O)cc3Oc3cc(O)c(F)cc32)c2ccc(N3C(=O)CC(*)C3=O)cc21

Assays:
[1] = target: T1, rFVa (Homo sapiens, UniProt P12259); test: Fluorescence anisotropy, direct binding of OG488-BR to rFVa; conditions: fluorescently labeled BR peptide, rFVa titrated
T1 construct: thrombin rapidly cleaves Factor V at Arg709 to produce heavy chain (HC); rapidly cleaves at Arg1018 and Arg1545 to produce light chain (LC); made in house
T1 sequence (P12259 29-737 limits assumed): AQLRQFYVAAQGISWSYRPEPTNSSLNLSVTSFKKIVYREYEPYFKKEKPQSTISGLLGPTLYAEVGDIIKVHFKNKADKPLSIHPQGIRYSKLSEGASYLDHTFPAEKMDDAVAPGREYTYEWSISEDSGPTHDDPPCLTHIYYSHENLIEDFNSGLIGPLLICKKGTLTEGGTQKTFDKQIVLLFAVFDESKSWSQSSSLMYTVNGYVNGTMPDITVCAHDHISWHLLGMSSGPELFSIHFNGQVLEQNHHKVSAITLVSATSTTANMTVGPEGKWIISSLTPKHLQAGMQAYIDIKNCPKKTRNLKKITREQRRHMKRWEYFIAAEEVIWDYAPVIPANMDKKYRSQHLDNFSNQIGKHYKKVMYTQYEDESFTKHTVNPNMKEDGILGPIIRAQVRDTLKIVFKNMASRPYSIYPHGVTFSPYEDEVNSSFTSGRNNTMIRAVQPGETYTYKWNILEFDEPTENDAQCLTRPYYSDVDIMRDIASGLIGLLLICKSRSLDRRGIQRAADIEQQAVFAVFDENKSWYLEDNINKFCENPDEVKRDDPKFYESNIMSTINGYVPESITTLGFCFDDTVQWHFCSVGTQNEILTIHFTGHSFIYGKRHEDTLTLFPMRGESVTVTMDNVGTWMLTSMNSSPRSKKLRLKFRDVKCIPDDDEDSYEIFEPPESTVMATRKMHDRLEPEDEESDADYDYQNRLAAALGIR
T1 sequence (P12259 1574-2224 limits assumed): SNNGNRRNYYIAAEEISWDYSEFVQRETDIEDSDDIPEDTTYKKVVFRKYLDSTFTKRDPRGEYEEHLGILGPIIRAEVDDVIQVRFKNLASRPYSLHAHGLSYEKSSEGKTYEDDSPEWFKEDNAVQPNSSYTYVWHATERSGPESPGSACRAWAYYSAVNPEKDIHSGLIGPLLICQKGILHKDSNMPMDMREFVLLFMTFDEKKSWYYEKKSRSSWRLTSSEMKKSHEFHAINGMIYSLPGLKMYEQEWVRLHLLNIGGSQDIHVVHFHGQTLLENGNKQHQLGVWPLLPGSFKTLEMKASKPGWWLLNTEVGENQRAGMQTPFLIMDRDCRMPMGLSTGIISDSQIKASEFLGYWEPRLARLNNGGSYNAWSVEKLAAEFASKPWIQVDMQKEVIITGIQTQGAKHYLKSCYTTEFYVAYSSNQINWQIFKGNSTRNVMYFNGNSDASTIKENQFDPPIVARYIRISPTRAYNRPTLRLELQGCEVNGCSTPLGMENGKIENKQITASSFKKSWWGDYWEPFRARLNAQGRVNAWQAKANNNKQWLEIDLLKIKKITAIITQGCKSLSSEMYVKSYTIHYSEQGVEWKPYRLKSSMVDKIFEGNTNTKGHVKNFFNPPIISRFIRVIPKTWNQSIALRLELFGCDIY

[2] = target: T2, FV-810^R709Q (Homo sapiens, UniProt P12259, DEL839-1519/R737Q); test: Fluorescence anisotropy, binding of OG488-BR to FV-810^R709Q; conditions: after incubation with thrombin
T2 construct: amino acids 1-28 are a signal peptide that is cleaved and numbering begins at residue 29; made in house
T2 sequence (P12259 with tags, fused parts or gaps R737Q/DEL839-1519): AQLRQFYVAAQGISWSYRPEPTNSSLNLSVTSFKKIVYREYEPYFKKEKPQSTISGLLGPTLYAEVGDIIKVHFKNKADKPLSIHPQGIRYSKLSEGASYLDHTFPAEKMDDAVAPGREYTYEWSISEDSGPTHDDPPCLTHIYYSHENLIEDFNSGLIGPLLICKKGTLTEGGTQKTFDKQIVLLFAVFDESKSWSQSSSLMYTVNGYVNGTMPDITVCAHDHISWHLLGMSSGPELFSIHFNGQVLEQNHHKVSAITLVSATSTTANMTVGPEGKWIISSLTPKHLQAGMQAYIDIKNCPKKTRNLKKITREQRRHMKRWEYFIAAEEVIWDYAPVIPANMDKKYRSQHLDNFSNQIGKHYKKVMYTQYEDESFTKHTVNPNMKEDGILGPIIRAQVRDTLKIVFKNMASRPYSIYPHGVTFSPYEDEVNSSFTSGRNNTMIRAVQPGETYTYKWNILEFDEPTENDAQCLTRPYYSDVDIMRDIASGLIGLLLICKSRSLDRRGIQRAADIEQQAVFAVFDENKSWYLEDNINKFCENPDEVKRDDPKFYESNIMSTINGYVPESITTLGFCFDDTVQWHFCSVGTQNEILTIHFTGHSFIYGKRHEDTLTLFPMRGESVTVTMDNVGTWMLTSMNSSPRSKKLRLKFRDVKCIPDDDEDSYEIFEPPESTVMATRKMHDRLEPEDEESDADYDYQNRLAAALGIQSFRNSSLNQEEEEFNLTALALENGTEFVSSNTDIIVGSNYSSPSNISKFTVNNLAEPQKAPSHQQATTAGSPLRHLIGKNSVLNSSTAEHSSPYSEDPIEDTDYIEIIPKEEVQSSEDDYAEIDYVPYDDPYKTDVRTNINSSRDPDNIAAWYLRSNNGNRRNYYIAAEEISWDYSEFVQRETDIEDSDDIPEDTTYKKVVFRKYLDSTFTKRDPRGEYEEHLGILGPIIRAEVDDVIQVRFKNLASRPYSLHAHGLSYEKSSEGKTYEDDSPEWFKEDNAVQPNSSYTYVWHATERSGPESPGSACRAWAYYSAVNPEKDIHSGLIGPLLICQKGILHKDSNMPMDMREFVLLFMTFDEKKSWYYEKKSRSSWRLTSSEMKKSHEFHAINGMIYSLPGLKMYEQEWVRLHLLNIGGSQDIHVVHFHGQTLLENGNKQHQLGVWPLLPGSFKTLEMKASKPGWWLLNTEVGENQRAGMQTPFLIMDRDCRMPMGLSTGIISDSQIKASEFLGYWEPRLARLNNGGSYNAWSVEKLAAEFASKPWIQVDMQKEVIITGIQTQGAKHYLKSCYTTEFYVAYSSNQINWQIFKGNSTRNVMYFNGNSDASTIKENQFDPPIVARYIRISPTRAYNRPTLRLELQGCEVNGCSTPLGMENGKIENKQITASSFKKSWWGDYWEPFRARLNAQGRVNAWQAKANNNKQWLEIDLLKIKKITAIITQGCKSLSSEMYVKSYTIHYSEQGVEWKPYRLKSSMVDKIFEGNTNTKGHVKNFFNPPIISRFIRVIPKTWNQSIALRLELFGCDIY

[3] = target: T3, FV-810^QQ (Homo sapiens, UniProt P12259, DEL839-1519/R1573Q/R737Q); test: Fluorescence anisotropy, binding of OG488-BR to FV-810^QQ; conditions: after incubation with thrombin
T3 construct: amino acids 1-28 are a signal peptide that is cleaved and numbering begins at residue 29; made in house
T3 sequence (P12259 with tags, fused parts or gaps R737Q/DEL839-1519/R1573Q): as the sequence (P12259 with tags, fused parts or gaps R737Q/DEL839-1519) above, with R864Q counted along it

[4] = target: T4, FV-810^R1545Q (Homo sapiens, UniProt P12259, DEL839-1519/R1573Q); test: Fluorescence anisotropy, binding of OG488-BR to FV-810^R1545Q
T4 construct: amino acids 1-28 are a signal peptide that is cleaved and numbering begins at residue 29; made in house
T4 sequence (P12259 with tags, fused parts or gaps DEL839-1519/R1573Q): as the sequence (P12259 with tags, fused parts or gaps R737Q/DEL839-1519) above, with Q709R, R864Q counted along it

[5] = target: T5, FV-810 (Homo sapiens, UniProt P12259, DEL839-1519); test: Fluorescence anisotropy, direct binding of OG488-BR to FV-810
T5 construct: amino acids 1-28 are a signal peptide that is cleaved and numbering begins at residue 29; made in house
T5 sequence (P12259 with tags, fused parts or gaps DEL839-1519): as the sequence (P12259 with tags, fused parts or gaps R737Q/DEL839-1519) above, with Q709R counted along it

[6] = target: T5, FV-810; test: Analytical ultracentrifugation (sedimentation velocity) of QSY7-BR with FV-810; format: binding
Protocol: Analytical ultracentrifugation of QSY7 C5-maleimide-modified BR (QSY7-BR) was performed in a Beckman Optima XL-I analytical ultracentrifuge using absorbance optics. Sedimentation velocity was measured at 25,000 or 45,000 rpm with two-sector cells in an An-60 Ti rotor at 20° C. Sedimentation of QSY7-BR was followed measuring absorbance at 560 nm in cells containing 5 μM QSY7-BR alone or with 7 μM FV-810 or rFVa in 20 mM HEPES, 150 mM NaCl, and 2 mM CaCl2, pH 7.4. Sedimentation coefficients and molecular weights were determined by g(s*) analysis performed using DCDT+ (Philo, J. S. (2000) Anal. Biochem., 279:151-163).

[7] = target: T6, FVDT (Homo sapiens, UniProt P12259, DEL839-1519); test: Inhibition of FVDT by the FVBR or TFPI peptide (FIG. 7B); format: biochemical
T6 construct: amino acids 1-28 are a signal peptide that is cleaved and numbering begins at residue 29; made in house
T6 sequence (P12259 with tags, fused parts or gaps DEL839-1519): as the sequence (P12259 with tags, fused parts or gaps R737Q/DEL839-1519) above, with Q709R counted along it

[8] = target: T6, FVDT; test: Direct binding of TFPI to FVDT (FIG. 7C)
[9] = target: T5, FV-810; test: Clotting assay, FV-deficient plasma supplemented with FV-810 (FV-DT); format: biochemical; conditions: FV-deficient plasma; FIG. 8A: 0.25 nM FV-810, peptides at 5 μM
Protocol: (§1) Residual clotting activity of Factor V variants was determined by prothrombin time-based clotting assays. Factor V variants were incubated with either the FVBR or s46 peptide, after which the mixtures were mixed with Factor V deficient plasma and clotting times were measured. Where indicated, the Factor V variants were activated by pre-incubation with thrombin prior to addition of the peptides.
(§2) FV derivatives (500 nM) were prepared in assay buffer. Where noted, FV derivatives were pretreated with 10 nM thrombin for 15 minutes at 37° C., followed by the addition of 15 nM hirudin. Samples were diluted to 0.25 nM in assay buffer with 0.1% BSA, and the specific clotting activity was measured in FV-deficient plasma (George King Bio-Medical, Overland Park, Kans.) with TriniCLOT PT Excel (Tcoag, Wicklow, Ireland) as described (Camire et al. (1998) Biochemistry 37:11896-11906). The data are presented as the means±S.D.

[10] = target: T5, FV-810; test: Displacement of OG488-BR from preformed OG488-BR/FV-810 complex (fluorescence anisotropy); format: binding
[11] = target: T7, FXa/FV-DT (Homo sapiens, UniProt P12259, DEL839-1519); test: Prothrombin activation assay, prothrombinase containing FV-810 (FV-DT); format: biochemical; conditions: peptide titrated; 1.4 μM prothrombin, 50 μM PCPS, 25° C.
T7 construct: amino acids 1-28 are a signal peptide that is cleaved and numbering begins at residue 29; made in house
T7 sequence (P12259 with tags, fused parts or gaps DEL839-1519): as the sequence (P12259 with tags, fused parts or gaps R737Q/DEL839-1519) above, with Q709R counted along it
Protocol: Steady-state initial velocities of prothrombin cleavage were determined discontinuously at 25° C. by measuring the initial rate of thrombin formation. Reaction mixtures contained liposomes (75:25, PC:PS), prothrombin, the indicated Factor V variants, and the Factor V peptides FVBR or s46. The reactions were initiated by adding Factor Xa, and thrombin generation was determined at multiple time points by monitoring the cleavage of the chromogenic thrombin substrate S-2238.
Steady-state initial velocities of prothrombin cleavage were determined discontinuously at 25° C. as described (Camire, R. M. (2002) J. Biol. Chem., 277:37863-37870). Reaction mixtures containing PCPS (50 μM), DAPA (3 μM), prothrombin (1.4 μM), and either rFVa or the indicated FV-810 derivatives were incubated with B-domain peptides (0-10 μM) in assay buffer. […] Prothrombin activation was determined using the chromogenic thrombin substrate 52238 as described (Camire, R. M. (2002) J. Biol. Chem., 277:37863-37870).

[12] = target: T1, rFVa; test: Clotting assay, FV-deficient plasma supplemented with rFVa; format: biochemical; conditions: FIG. 8B: 0.25 nM rFVa, peptides at 5 μM
Protocol: as §1, §2

sedimentation coefficient (s^020,w) ([6]; 5 μM QSY7-BR alone, absence of FV-810): 0.98 S (Svedberg)
sedimentation coefficient ([6]; 5 μM QSY7-BR in the presence of 7 μM FV-810): 9.8 S (Svedberg)
Molecule: H-C(X2)SRAWGESTPLANKPGKQSGHPKFPRVRHKSLQVRQDGGKSRLKKSQFLIKTRKKKKEK-OH [QSY7-BR]

direct binding to FVDT [8]: directly bound
Molecule: TFPI peptide: C-terminal tail peptide of tissue factor pathway inhibitor (amino acids 240-265, SEQ ID NO: 4) (KKGFIQRISKGGLIKTKRKRKKQRVK; peptide from human tissue factor pathway inhibitor)
inhibition of FVDT [7]: inhibited FVBT in a manner similar to FVBR

inhibition of clotting activity of FV-810 (FV-DT) [9]: no longer inhibited
Molecule: acetylated BR peptide: BR peptide acetylated at all Lys residues and the N terminus (Ac-SRAWGESTPLANK(Ac)PGK(Ac)QSGHPK(Ac)FPRVRHK(Ac)SLQVRQDGGK(Ac)SRLK(Ac)K(Ac)SQFLIK(Ac)TRK(Ac)K(Ac)K(Ac)K(Ac)EK(Ac))

Continued, molecule first:

Molecule: H-C(X1)SRAWGESTPLANKPGKQSGHPKFPRVRHKSLQVRQDGGKSRLKKSQFLIKTRKKKKEK-OH [OG488-BR]
binding to rFVa/FVa [1]: no detectable binding
binding of OG488-BR to thrombin-cleaved FV-810^R709Q [2]: did not; also recorded: neither FV-810 nor FV-810^R709Q had detectable binding
Kd, OG488-BR binding to thrombin-treated FV-810^QQ [3]: still bound
Kd ([4]; after incubation with thrombin, read-out: Kd, OG488-BR binding to thrombin-cleaved FV-810^R1545Q): 30 nM
Kd ([4]; pretreated with buffer, assuming n=1, read-out: Kd, OG488-BR binding to FV-810^R1545Q): 2 nM
binding of OG488-BR to FV-810 with EDTA ([5]; 10 mM EDTA added to the buffer): no binding was observed
stoichiometry n at saturation ([5]; 20 or 40 nM OG488-BR, 50 μM PCPS, 25° C.): 1.27±0.02 mol of FV-810/mol of OG488-BR
Kd ([5]; FV-810 pretreated with buffer, 30 nM OG488-BR, 50 μM PCPS, assuming n=1): 2.1 ± 0.3 nM
Kd ([5]; FV-810 titrated into 20 or 40 nM OG488-BR, 50 μM PCPS, 25° C.): 2.07 ± 0.2 nM
binding of OG488-BR to thrombin-cleaved FV-810 ([5]; after incubation with thrombin): did not; also recorded: neither FV-810 nor FV-810^R709Q had detectable binding

Molecule: bovine BR: Bos taurus FV basic region Ser938-Lys996 (SRTWGENIPFKNSHGKQSGHPTFLVTRRKPLQDRQDRRNSRLKEGLPLIRTRRKKKEEK)
Kd ([10]; 30 nM OG488-BR, 20 nM FV-810, 50 μM PCPS, 25° C., assuming stoichiometry of 1 mol of FV-810/mol of BR peptide): 28.3 ± 0.6 nM
weaker binding to FV-810 than the human BR ([10]; displacement binding experiments): ~10 fold
inhibition of prothrombin activation with FV-810 (FV-DT) [11]: inhibited
inhibition of clotting activity of FV-810 (FV-DT) [9]: inhibited

Molecule: platelet factor 4: cationic platelet factor 4 [reference compound]
inhibition of clotting activity of FV-810 (FV-DT) [9]: neither low molecular weight poly-L-lysine (average Mr=1000-5000) (FIG. 8A) nor the cationic platelet factor 4 affected FV-810 activity

Molecule: poly-L-lysine [reference compound]
inhibition of clotting activity of FV-810 (FV-DT) [9]: neither low molecular weight poly-L-lysine (average Mr=1000-5000) (FIG. 8A) nor the cationic platelet factor 4 affected FV-810 activity

B1: BR+AR peptide: FV residues 968-1007 and 1492-1538, juxtaposed BR and AR sequences from FV-B104 (peptide)
peptide: SGHPKFPRVRHKSLQVRQDGGKSRLKKSQFLIKTRKKKKETDYIEIIPKEEVQSSEDDYAEIDYVPYDDPYKTDVRTNINSSRDPDN
inhibition of clotting activity of rFVa/FVa [12]: not inhibited
